{"source": "ChEMBL document CHEMBL5465560", "about": "“Selectivity Literature for EUbOPEN Chemogenomic Library” (2024)", "key": {"[1]": {"target": "Bone morphogenetic protein receptor type-1B (Homo sapiens, UniProt O00238)", "sequence (O00238 whole entry)": "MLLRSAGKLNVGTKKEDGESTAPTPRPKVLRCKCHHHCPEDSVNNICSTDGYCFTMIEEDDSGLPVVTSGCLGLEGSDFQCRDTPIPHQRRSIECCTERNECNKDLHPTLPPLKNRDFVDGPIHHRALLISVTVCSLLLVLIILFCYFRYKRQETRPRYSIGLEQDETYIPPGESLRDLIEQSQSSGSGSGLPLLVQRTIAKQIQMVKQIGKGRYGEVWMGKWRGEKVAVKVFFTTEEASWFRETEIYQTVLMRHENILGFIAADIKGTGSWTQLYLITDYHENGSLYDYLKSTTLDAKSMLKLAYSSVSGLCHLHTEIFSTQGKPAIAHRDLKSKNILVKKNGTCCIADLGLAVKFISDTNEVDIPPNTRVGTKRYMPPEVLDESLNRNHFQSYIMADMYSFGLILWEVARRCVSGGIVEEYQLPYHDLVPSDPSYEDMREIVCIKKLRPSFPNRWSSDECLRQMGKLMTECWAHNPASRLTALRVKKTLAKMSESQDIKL", "experiment": "Selectivity interaction (LanthaScreen Eu Kinase Binding Assay) EUB0001632a BMPR1B", "details": "at 10 µM"}, "[2]": {"target": "Fibroblast growth factor receptor 4 (Homo sapiens, UniProt P22455)", "experiment": "Selectivity interaction (Kinase panel (33PanQinase(R) Activity Assay)) EUB0000877a FGFR4"}, "[3]": {"target": "Ribosomal protein S6 kinase alpha-1 (Homo sapiens, UniProt Q15418)", "sequence (Q15418 whole entry)": "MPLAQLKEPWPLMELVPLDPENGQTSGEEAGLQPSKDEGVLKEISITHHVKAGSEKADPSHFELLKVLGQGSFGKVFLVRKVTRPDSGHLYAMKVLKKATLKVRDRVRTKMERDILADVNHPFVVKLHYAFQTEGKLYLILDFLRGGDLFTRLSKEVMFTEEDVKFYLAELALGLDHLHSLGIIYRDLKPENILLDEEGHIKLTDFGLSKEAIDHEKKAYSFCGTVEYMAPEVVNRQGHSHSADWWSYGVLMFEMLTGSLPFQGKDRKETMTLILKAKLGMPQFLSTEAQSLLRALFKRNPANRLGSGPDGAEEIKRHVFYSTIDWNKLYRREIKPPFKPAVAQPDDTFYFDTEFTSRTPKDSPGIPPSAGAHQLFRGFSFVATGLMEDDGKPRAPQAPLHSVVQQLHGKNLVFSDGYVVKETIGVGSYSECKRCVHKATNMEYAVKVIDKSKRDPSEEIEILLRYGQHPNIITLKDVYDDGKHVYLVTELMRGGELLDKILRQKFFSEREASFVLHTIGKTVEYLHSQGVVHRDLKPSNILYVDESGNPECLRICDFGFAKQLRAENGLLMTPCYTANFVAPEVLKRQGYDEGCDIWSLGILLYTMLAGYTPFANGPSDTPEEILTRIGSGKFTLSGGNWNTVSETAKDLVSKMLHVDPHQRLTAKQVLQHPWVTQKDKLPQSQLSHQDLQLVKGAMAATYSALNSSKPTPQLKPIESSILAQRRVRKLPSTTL", "experiment": "Selectivity interaction (Kinase panel (literature)) EUB0001199aCl RPS6KA1", "details": "at 1 µM"}, "[4]": {"target": "T1, Receptor-interacting serine/threonine-protein kinase 1 (Homo sapiens) (UniProt Q13546)", "T1 sequence (whole entry)": "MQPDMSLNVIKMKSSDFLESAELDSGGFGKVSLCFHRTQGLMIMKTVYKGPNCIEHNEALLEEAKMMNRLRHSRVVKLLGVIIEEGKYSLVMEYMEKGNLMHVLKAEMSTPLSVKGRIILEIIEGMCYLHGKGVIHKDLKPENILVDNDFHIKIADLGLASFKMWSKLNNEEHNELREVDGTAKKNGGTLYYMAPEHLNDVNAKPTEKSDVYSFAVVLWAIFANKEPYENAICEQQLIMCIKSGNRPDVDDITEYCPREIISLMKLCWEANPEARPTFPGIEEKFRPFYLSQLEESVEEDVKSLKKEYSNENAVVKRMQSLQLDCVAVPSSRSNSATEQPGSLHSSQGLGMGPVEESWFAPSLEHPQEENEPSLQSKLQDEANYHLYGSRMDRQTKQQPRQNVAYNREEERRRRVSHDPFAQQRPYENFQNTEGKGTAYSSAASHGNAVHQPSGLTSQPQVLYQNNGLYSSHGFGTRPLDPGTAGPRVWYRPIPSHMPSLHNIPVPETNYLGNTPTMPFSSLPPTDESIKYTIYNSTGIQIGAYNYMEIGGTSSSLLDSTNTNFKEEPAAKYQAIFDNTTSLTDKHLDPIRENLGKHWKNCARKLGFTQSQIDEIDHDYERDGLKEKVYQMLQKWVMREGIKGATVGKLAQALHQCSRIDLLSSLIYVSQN", "experiment": "Selectivity interaction (Kinase panel (Eurofins)) EUB0001564a RIPK1", "details": "at 1 µM"}, "[5]": {"target": "NT-3 growth factor receptor (Homo sapiens, UniProt Q16288)", "sequence (Q16288 32-839 limits assumed)": "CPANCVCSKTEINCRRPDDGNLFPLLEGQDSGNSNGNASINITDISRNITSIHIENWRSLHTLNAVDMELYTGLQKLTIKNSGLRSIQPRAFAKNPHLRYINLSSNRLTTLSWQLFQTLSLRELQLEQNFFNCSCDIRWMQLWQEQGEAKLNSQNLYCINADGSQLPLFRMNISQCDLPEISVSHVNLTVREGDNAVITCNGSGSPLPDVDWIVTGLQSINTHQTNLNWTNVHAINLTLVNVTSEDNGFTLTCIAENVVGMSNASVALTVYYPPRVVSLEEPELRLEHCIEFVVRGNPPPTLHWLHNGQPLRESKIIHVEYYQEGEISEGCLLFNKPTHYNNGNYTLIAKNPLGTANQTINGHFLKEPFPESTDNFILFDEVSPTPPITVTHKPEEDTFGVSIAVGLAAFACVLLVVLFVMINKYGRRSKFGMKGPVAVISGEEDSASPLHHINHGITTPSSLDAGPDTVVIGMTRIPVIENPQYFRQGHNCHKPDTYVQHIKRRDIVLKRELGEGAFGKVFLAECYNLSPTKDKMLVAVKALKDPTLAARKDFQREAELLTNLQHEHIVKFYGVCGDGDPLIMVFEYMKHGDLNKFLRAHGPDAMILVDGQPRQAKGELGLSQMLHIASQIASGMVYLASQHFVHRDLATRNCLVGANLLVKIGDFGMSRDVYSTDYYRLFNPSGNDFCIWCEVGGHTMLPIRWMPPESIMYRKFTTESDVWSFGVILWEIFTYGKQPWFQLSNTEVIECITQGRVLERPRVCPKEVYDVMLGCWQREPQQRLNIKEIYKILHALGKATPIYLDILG", "details": "at 10 µM"}, "[6]": {"target": "Mitogen-activated protein kinase 9 (Homo sapiens, UniProt P45984)", "experiment": "Selectivity interaction (Kinase panel (Invitrogen)) EUB0000639a MAPK9", "details": "at 200 nM"}, "[7]": {"target": "Interferon-induced, double-stranded RNA-activated protein kinase (Homo sapiens) (UniProt P19525)", "sequence (P19525 whole entry)": "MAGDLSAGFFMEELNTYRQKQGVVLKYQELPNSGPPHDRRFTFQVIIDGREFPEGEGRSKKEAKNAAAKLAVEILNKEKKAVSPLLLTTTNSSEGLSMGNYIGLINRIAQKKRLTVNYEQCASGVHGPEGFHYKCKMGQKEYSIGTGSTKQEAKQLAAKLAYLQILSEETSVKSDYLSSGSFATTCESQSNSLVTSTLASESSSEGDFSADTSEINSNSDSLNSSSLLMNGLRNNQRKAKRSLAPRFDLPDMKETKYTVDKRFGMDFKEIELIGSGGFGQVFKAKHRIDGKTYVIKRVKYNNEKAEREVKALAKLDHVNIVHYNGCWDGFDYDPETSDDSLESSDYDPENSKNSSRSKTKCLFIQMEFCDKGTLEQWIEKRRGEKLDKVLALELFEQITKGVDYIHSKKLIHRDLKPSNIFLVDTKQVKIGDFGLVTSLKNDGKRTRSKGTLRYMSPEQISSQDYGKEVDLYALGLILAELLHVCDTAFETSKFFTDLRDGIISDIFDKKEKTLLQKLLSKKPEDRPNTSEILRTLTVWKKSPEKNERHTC", "experiment": "Selectivity interaction (ProQinase) EUB0000171b EIF2AK2"}, "[8]": {"target": "Homeodomain-interacting protein kinase 1 (Homo sapiens, UniProt Q86Z02)", "experiment": "Selectivity interaction (KinomeScan (DiscoverX)) EUB0000695a HIPK1", "details": "at 100 nM"}, "[9]": {"target": "Cyclin-dependent kinase 15 (Homo sapiens) (UniProt Q96Q40)", "experiment": "Selectivity interaction (KinomeScan (DiscoverX)) EUB0000695a CDK15", "details": "at 100 nM"}, "[10]": {"target": "T2, Ephrin type-B receptor 2 (Homo sapiens) (UniProt P29323)", "T2 sequence (whole entry)": "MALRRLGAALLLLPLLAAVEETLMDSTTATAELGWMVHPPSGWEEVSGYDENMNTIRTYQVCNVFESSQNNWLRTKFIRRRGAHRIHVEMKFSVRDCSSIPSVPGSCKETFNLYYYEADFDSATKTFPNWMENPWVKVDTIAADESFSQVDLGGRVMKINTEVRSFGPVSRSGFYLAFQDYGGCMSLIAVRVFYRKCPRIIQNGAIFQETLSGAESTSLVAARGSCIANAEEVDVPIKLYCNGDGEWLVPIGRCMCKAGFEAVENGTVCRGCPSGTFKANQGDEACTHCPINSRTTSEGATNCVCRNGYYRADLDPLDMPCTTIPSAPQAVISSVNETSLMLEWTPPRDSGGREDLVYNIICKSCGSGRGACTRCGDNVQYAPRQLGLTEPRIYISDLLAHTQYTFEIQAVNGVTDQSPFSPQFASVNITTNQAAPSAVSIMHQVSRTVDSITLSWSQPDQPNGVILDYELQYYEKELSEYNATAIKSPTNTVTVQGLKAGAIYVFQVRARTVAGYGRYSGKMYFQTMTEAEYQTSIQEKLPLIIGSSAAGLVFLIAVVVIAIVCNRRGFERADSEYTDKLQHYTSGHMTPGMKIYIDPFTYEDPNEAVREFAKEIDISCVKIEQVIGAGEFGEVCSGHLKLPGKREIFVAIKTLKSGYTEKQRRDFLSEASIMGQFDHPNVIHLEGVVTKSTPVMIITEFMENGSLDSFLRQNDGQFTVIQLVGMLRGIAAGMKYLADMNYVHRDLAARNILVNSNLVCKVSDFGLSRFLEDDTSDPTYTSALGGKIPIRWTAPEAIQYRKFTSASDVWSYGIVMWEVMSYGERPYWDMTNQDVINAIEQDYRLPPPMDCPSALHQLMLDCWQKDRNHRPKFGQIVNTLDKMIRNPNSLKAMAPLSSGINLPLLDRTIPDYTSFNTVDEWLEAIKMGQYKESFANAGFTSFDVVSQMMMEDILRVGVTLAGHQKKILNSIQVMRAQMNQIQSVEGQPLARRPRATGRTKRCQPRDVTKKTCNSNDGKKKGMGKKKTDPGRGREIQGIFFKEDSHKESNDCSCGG", "experiment": "Selectivity interaction (KinomeScan (DiscoverX)) EUB0000595a EPHB2", "details": "at 10 µM"}, "[11]": {"target": "Atypical kinase COQ8A, mitochondrial (Homo sapiens, UniProt Q8NI60)", "experiment": "Selectivity interaction (Ambit KINOMEscan and KiNATiv profiling in Jurkat cells) EUB0000090b ADCK3", "type": "cell-based", "details": "at 1 µM"}, "[12]": {"system": "Tyrosine-protein kinase ABL1 (Homo sapiens), P00519 [H396P]", "experiment": "Selectivity interaction (Ambit KINOMEscan and KiNATiv profiling in Jurkat cells) EUB0000090b ABL1", "type": "cell-based", "details": "at 1 µM"}, "[13]": {"system": "Epidermal growth factor receptor (Homo sapiens), P00533 [UNDEFINED MUTATION]", "experiment": "Selectivity interaction (KinomeScan (DiscoverX)) EUB0000045b EGFR", "details": "at 1 µM"}, "[14]": {"target": "Mitogen-activated protein kinase 7 (Homo sapiens) (UniProt Q13164)", "sequence (Q13164 2-816 limits assumed)": "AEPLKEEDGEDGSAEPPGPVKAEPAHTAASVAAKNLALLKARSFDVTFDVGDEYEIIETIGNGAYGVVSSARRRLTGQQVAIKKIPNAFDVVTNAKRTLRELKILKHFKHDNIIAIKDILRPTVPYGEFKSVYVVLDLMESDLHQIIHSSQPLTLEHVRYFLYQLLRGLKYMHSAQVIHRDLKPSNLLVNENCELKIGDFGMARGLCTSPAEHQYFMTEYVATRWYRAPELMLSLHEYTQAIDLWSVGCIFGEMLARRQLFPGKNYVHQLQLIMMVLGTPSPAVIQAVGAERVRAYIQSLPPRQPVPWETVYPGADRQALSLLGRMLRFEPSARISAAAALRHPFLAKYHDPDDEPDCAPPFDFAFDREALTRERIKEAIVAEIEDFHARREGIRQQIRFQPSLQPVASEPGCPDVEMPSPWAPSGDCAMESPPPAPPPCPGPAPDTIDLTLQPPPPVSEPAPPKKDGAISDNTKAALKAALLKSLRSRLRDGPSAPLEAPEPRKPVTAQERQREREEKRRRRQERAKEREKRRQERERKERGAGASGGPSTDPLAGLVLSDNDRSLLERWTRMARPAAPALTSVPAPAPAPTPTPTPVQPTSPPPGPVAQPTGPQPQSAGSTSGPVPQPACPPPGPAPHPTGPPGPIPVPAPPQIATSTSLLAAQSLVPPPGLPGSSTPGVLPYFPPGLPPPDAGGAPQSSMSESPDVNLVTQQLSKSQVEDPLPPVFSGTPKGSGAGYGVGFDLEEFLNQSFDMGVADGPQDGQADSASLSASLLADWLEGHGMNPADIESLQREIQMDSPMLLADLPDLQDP", "experiment": "Selectivity interaction (KinomeScan (DiscoverX)) EUB0000229b MAPK7", "details": "at 10 µM"}, "[15]": {"target": "Mitogen-activated protein kinase 3 (Homo sapiens, UniProt P27361)", "sequence (P27361 whole entry)": "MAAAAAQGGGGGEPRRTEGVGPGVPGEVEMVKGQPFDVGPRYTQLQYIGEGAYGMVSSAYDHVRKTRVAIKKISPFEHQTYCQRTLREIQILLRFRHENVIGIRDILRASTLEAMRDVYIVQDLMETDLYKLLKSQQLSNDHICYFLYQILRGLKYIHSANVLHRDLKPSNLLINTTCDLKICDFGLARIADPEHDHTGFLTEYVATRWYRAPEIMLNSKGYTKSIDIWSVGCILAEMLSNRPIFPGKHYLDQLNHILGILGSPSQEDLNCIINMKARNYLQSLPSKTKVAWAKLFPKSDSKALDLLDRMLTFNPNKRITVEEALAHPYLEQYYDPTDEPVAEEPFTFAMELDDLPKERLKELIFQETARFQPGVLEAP", "experiment": "Selectivity interaction (KinomeScan (DiscoverX)) EUB0000092b MAPK3", "details": "at 10 µM"}, "[16]": {"target": "Eukaryotic translation initiation factor 2-alpha kinase 1 (Homo sapiens) (UniProt Q9BQI3)", "details": "at 10 µM"}, "[17]": {"target": "Mitogen-activated protein kinase kinase kinase kinase 5 (Homo sapiens) (UniProt Q9Y4K4)", "sequence (Q9Y4K4 whole entry, looked up)": "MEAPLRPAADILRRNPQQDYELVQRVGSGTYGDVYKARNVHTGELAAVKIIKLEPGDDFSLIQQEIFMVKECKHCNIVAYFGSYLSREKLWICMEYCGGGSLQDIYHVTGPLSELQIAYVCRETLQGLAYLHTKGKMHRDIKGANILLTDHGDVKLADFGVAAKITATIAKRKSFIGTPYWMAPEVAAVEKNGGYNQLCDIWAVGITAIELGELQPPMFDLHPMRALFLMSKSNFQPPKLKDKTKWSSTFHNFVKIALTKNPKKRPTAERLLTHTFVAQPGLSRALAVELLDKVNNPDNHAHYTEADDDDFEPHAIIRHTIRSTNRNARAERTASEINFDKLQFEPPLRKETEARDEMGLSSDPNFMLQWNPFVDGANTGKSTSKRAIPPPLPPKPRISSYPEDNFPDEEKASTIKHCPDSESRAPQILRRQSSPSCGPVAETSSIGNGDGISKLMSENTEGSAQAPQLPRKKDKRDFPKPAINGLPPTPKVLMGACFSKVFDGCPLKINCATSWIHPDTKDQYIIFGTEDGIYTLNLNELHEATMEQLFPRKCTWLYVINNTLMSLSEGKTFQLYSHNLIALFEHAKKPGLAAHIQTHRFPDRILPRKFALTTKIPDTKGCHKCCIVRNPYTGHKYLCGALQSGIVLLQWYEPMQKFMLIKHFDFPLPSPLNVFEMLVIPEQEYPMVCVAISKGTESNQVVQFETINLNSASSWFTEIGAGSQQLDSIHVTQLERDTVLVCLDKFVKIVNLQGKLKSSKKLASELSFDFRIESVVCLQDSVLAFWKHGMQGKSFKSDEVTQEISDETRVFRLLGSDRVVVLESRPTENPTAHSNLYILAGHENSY", "experiment": "Selectivity interaction (KinomeScan (DiscoverX)) EUB0001619a MAP4K5", "details": "at 1 µM"}, "[18]": {"target": "Mitogen-activated protein kinase kinase kinase kinase 5 (Homo sapiens) (UniProt Q9Y4K4)", "experiment": "Selectivity interaction (ActivX KiNativ screen (ex vivo kinase selectivity in human PBMCs)) EUB0001619a MAP4K5", "type": "cell-based", "details": "PBMC, at 1 µM"}}, "note": "pIC50: −log10 of the molar value."}
{"smiles": "Cn1cc(-n2cnc3c(NCc4nc5cc(Cl)c(Cl)cc5[nH]4)nc(N4CCOCC4)nc32)cn1", "values": [{"measurement": "% of inhibition", "setting": "[1]", "result": -57.7, "unit": "%"}]}
{"smiles": "CCC(=O)N1CC[C@H](Nc2ncnc3c2CN(c2cnc(OC)c(C(F)(F)F)c2)CC3)C1", "note": "[LENIOLISIB]", "values": [{"measurement": "pIC50", "setting": "[2]", "result": "< 5.00"}]}
{"smiles": "CN1Cc2nccc(-c3cn(C)nc3-c3ccc(F)cc3)c2C1=O", "values": [{"measurement": "% of inhibition", "setting": "[3]", "result": 18, "unit": "%"}]}
{"smiles": "CC[C@@H](Nc1c(C#N)c(-c2ccc(-c3cccc(C)c3F)cc2)nc2cnccc12)C(=O)O", "note": "[BAY-091]", "values": [{"measurement": "% of inhibition", "setting": "[4]", "result": 21.2, "unit": "%"}]}
{"smiles": "CCN(CC)CCCCNc1ncc2cc(-c3cc(OC)cc(OC)c3)c(NC(=O)NC(C)(C)C)nc2n1", "values": [{"measurement": "% of control", "setting": "[5]", "result": 100, "unit": "%"}]}
{"smiles": "CC[C@@H]1[C@H](F)C(=O)N[C@@H]1COc1nccc2cc(C(N)=O)c(OC)cc12", "note": "[ZIMLOVISERTIB]", "values": [{"measurement": "% of inhibition", "setting": "[6]", "result": 2.83, "unit": "%"}]}
{"smiles": "C=CC(=O)Nc1cccc(C(=O)Nc2ccc(Nc3cc(-c4[nH]c(SC)nc4C)ccn3)cc2)c1", "values": [{"measurement": "% of control", "setting": "[7]; at 1 µM", "result": 84, "unit": "%"}, {"measurement": "% of control", "setting": "[7]; at 5 µM", "result": 55, "unit": "%"}]}
{"smiles": "Cc1cc(F)c(C(=O)Nc2cccc(-c3nncn3C(C)C)n2)cc1-n1cnc(C2CC2)c1", "values": [{"measurement": "% of control", "setting": "[8]", "result": 100, "unit": "%"}, {"measurement": "% of control", "setting": "[9]", "result": 100, "unit": "%"}]}
{"smiles": "COCC(=O)NC/C=C/c1ccc2ncnc(Nc3ccc(Oc4ccc(C)nc4)c(C)c3)c2c1", "note": "[CP-724714]", "values": [{"measurement": "% of control", "setting": "[10]", "result": 100, "unit": "%"}]}
{"smiles": "CN(C)C/C=C/C(=O)Nc1ccc(C(=O)N2CCCC(Nc3ncc(Cl)c(-c4c[nH]c5ccccc45)n3)C2)cc1", "note": "(centres undefined)", "values": [{"measurement": "% of control", "setting": "[11]", "result": 90, "unit": "%"}, {"measurement": "% of control", "setting": "[12]", "result": 100, "unit": "%"}]}
{"smiles": "C=CC(=O)Nc1cc(-n2c(=O)ccc3cnc4ccc(-c5ccc(NS(C)(=O)=O)cc5)cc4c32)ccc1C", "values": [{"measurement": "% of control", "setting": "[13]", "result": 89, "unit": "%"}]}
{"smiles": "COc1cc(N(C)c2ccnc3ccc(C(F)(F)F)cc23)cc(OC)c1OC", "values": [{"measurement": "% binding", "setting": "[14]", "result": 87, "unit": "%"}]}
{"smiles": "CCC(=O)N1CCN(c2ccc(-n3c(=O)ccc4cnc5ccc(-c6cnc7ccccc7c6)cc5c43)cc2C(F)(F)F)CC1", "values": [{"measurement": "% of control", "setting": "[15]", "result": 91, "unit": "%"}]}
{"smiles": "Cc1cc([C@@H](C)Nc2ccccc2C(=O)O)c2nc(N3CCOCC3)cc(=O)n2c1", "note": "[AZD-6482]", "values": [{"measurement": "% of control", "setting": "[16]", "result": 97, "unit": "%"}]}
{"smiles": "N#Cc1cccc(-c2c[nH]c3ncnc(N4CCOCC4)c23)c1", "values": [{"measurement": "% of control", "setting": "[17]", "result": 53, "unit": "%"}, {"measurement": "% of inhibition", "setting": "[18]", "result": 13, "unit": "%"}]}
